Viability data for 59 compounds are collected here from publication PMC12040169 (PLOS Biology, 2025).

SMILES strings stand for the structures.

A word on the viability: it is a read-out of living cells in per cent, often relative to untreated cells.

This series can be described thus: in vitro. Conditions: human, hela cells, % viability.
For `CCOC(=O)c1ccc(S(=O)(=O)N2CCCCC2)cc1` [CBK069738], the viability at 28.5 h, 10 µM is 106%.
As for `COc1ccc(Cl)cc1NC(=O)C1CCCN1S(=O)(=O)c1ccc(F)cc1` (centres unmarked) [CBK069866], the viability at 28.5 h, 10 µM turned out to be 108%.
As for `O=C(Cc1ccccc1)N1CCC(c2nc3ccccc3s2)CC1` [CBK070145], the figure is 92.6%; as for `CC(C)C1OC(NCc2ccc(Cl)cc2)=NC1=O` (centres unmarked) [CBK070352], 94.9%.
The result for `CC(C)C1OC(NC2CC(C)(C)NC(C)(C)C2)=NC1=O` (centres unmarked) [CBK070360T] reads 97.1%.
Turning to `COC(=O)c1ccc(S(=O)(=O)N2CCC(C)CC2)cc1` [CBK070414], the viability at 28.5 h, 10 µM worked out at 98.1%.
As for `O=C(CSc1nnc(-c2ccncc2)o1)c1ccccc1` [CBK070562], the figure is 87.5%; as for `CCNC(=O)Nc1ncc(-c2ccccc2)c2cccnc12` [CBK070624], 95.3%.
The result for `CCNC(=O)Nc1ncc(-c2ccc(C(C)(C)C)cc2)c2cccnc12` [CBK070632] reads 98.6%.
On to `CCNC(=O)Nc1ncc(-c2cc(OC)c(OC)c(OC)c2)c2cccnc12` [CBK070635], for which the viability at 28.5 h, 10 µM was found to be 83.2%.
The result for `CCNC(=O)Nc1ncc(-c2ccc(Oc3ccccc3)cc2)c2cccnc12` [CBK070636] reads 104%.
The result for `CCNC(=O)Nc1cc2cccnc2nc1-c1cc(F)cc(F)c1` [CBK070638] reads 97%.
Turning to `CCNC(=O)Nc1cc2cccnc2nc1-c1cccc(C(F)(F)F)c1` [CBK070645], the viability at 28.5 h, 10 µM worked out at 94.1%.
The result for `CCNC(=O)Nc1ccc2ccc(-c3cccnc3)nc2n1` [CBK070652] reads 85%; that for `CCNC(=O)Nc1ccc2ccc(-c3ccc(SC)cc3)nc2n1` [CBK070656], 90.9%; that for `CCNC(=O)Nc1ccc2c(-c3ccc4c(c3)CCO4)ccnc2n1` [CBK070673], 96.2%.
Regarding `CCNC(=O)Nc1ccc2c(-c3cccc(C(F)(F)F)c3)ccnc2n1` [CBK070678], the viability at 28.5 h, 10 µM was 93.7%.
The result for `CCNC(=O)Nc1ncc(-c2ccc(OC(F)(F)F)cc2)c2cccnc12` [CBK070690] reads 94%.
Consider `CCNC(=O)Nc1cc2cccnc2nc1-c1ccc2c(c1)OCCCO2` [CBK070695], for which the viability at 28.5 h, 10 µM is 97.1%.
With `CCNC(=O)Nc1ccc2ccc(-c3ccsc3)nc2n1` [CBK070699], the viability at 28.5 h, 10 µM came out at 73.5%.
As for `CN1CCN(c2ccc3ccn(S(=O)(=O)c4ccc([N+](=O)[O-])cc4)c3n2)CC1` [CBK070757C], the figure is 104%.
The result for `CN1CCN(CCC(=O)Nc2cccc(Cl)c2)CC1` [CBK070793C] reads 108%; that for `O=C(CSCc1nc2ccccc2c(=O)n1-c1ccccc1Cl)Nc1ccccc1` [CBK070895], 95.2%.
The result for `COc1cccc(NC(=O)CCS(=O)(=O)c2cccs2)c1` [CBK071069] reads 100%; that for `Cc1c(Br)c(C(F)(F)F)nn1CC(=O)N1CCCC1` [CBK071473], 92.9%; that for `CCc1ccc(CNC(=O)c2ccc3c(c2)NC(=O)C(N2CCOCC2)S3)cc1` (centres unmarked) [CBK071737], 93.2%.
`CCCCNC(=O)c1ccc2c(c1)NC(=O)C(N1CCCC1)S2` (centres unmarked) [CBK071762]: the viability at 28.5 h, 10 µM came out at 98.4%.
The result for `COC(=O)Cn1cnc2sc(C(=O)Nc3ccccc3OC)c(C)c2c1=O` [CBK071808] reads 109%.
In the case of `CCCn1cnc2sc(C(=O)Nc3ccc(C)cc3C)c(C)c2c1=O` [CBK071815], the viability at 28.5 h, 10 µM came to 84.6%.
As for `COCCNC(=O)c1sc2ncn(CC(=O)Nc3ccccc3OC)c(=O)c2c1C` [CBK071846], the figure is 88.7%; as for `CCOCCn1cnc2sc(C(=O)Nc3cccc(Cl)c3)c(C)c2c1=O` [CBK071854], 91.8%.
The result for `Cc1cc2c(=O)n(CC(=O)NCc3ccco3)cnc2s1` [CBK071898] reads 91.2%; that for `COCCCNC(=O)Cn1cnc2sc(C)cc2c1=O` [CBK071899], 102%; that for `CCOc1ccc(C(=O)Nc2nc(-c3ccc(F)cc3)cs2)cc1` [CBK072020], 91%.
As for `O=C(Nc1nc2ccccc2s1)c1cc([N+](=O)[O-])ccc1Cl` [CBK072428], the figure is 85.9%.
`O=C(c1cccnc1)N1CCN(C(=O)c2ccco2)CC1` [CBK072684]: the viability at 28.5 h, 10 µM turned out to be 94.3%.
For `Fc1cccc(Nc2nc(-c3ccncc3)nc3ccccc23)c1` [CBK072732], the viability at 28.5 h, 10 µM was 89.5%.
The result for `CCOc1ccc(Nc2ncnc3c2cnn3Cc2ccccc2)cc1` [CBK072752] reads 97.8%; that for `Cc1cccc(Nc2ncnc3ccccc23)c1` [CBK072827], 114%; that for `Cc1cc(C)c(OCC(=O)Nc2cc(-c3nc4ncccc4o3)ccc2C)c(Cl)c1` [CBK072887], 92.7%.
The result for `Cc1cc(NC(=O)c2ccc3c(c2)C(=O)N(CC2CCCO2)C3=O)no1` (centres unmarked) [CBK072998] reads 90.2%; that for `Cc1cccc(C(=O)Nc2ccc3oc(-c4cccnc4)nc3c2)c1` [CBK073161], 82.7%.
As for `CCCc1c(O)nc(SCC(=O)NCc2ccco2)[nH]c1=O` [CBK073278], the figure is 95.2%; as for `CCCCc1c(O)nc(SCC(=O)NCC2CCCO2)[nH]c1=O` (centres unmarked) [CBK073281], 97.6%; as for `C=CCNC(=O)CSc1nc(O)cc(=O)[nH]1` [CBK073298], 104%.
Regarding `C=CCc1c(O)nc(SCC(=O)N2CCOCC2)[nH]c1=O` [CBK073301], the viability at 28.5 h, 10 µM amounted to 91.8%.
The result for `O=C(O)CC(NS(=O)(=O)c1cccc2nsnc12)C(=O)O` (centres unmarked) [CBK073316] reads 112%; that for `C=CCOC(=O)C1=C(C)N=C2SCCC(=O)N2C1c1ccc(SC)cc1` (centres unmarked) [CBK073405], 93.5%.
As to `COc1ccc(C)cc1S(=O)(=O)Nc1cc(N2CCN(C(C)C)CC2)c2occc2c1` [CBK073625C], the viability at 28.5 h, 10 µM was determined as 92%.
As for `CC(C)C(=O)Nc1cc2cccnc2nc1-c1ccc(N(C)C)cc1` [CBK073650], the viability at 28.5 h, 10 µM amounted to 90.6%.
For the compound `CC(C)C(=O)Nc1cc2cccnc2nc1-c1cccc(C(F)(F)F)c1` [CBK073657], the viability at 28.5 h, 10 µM stood at 93.7%.
The result for `COc1ccc(C(C)C)cc1-c1nc2ncccc2cc1NC(=O)C(C)C` [CBK073659] reads 87.8%.
The result for `COc1cc(F)ccc1-c1ccc2ccc(NC(=O)C(C)C)nc2n1` [CBK073666] reads 87.1%; that for `CCCCc1ccc(-c2ccc3ccc(NC(=O)C(C)C)nc3n2)cc1` [CBK073668], 93%; that for `CC(C)C(=O)Nc1ccc2ccc(-c3ccc(C(C)(C)C)cc3)nc2n1` [CBK073669], 106%.
Consider `CC(C)C(=O)Nc1ccc2c(-c3ccccc3)ccnc2n1` [CBK073671], for which the viability at 28.5 h, 10 µM was 101%.
The result for `CC(C)C(=O)Nc1ccc2c(-c3ccc4c(c3)CCO4)ccnc2n1` [CBK073672] reads 87.7%.
As for `CC(C)C(=O)Nc1ccc2c(-c3ccc4c(c3)OCCCO4)ccnc2n1` [CBK073675], the figure is 96.7%; as for `Oc1cc2cccnc2nc1-c1ccc2c(c1)CCO2` [CBK073698], 76%.
